Source: patent publication US11992490B2, “Use of JAK1 inhibitors for the treatment of cutaneous lupus erythematosus and Lichen planus (LP)” (Incyte Corporation, priority 2019, dated 2024)

How the values were obtained:
[1] = molecular target: human JAK1 (a.a. 837-1142) (Homo sapiens, UniProt P23458); assay: In vitro JAK kinase assay (HTRF), JAK1; assay type: biochemical; conditions: 1 mM ATP
[2] = molecular target: human JAK2 (a.a. 828-1132) (Homo sapiens (Human), UniProt O60674); assay: In vitro JAK kinase assay (HTRF), JAK2; assay type: biochemical; conditions: JAK2/JAK1 IC50 ratio, 1 mM ATP
MRL-lpr mice = assay: Topical treatment of CLE-like lesions in lupus-prone MRL-lpr mice; assay type: in vivo, mouse
Description: Topical treatment with JAK1-selective INCB054707 started with the MRL-lpr Mice at 11 weeks of age.

[3] = second independent experiment, dose-response
[4] = topical, 11 to 22 weeks, compared to placebo-treated mice

human JAK2 (a.a. 828-1132), sequence (O60674 828-1132): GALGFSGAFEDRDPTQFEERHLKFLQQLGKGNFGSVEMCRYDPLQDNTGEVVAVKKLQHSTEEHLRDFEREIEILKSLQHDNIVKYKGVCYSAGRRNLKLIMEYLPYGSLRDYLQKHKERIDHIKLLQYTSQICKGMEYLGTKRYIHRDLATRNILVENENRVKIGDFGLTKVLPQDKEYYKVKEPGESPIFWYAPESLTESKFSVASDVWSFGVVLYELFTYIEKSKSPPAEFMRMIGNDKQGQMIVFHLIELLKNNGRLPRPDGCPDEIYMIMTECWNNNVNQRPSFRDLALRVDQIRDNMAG

SMILES | IC50 [1] | JAK2/JAK1 [2] | also measured
N#CCC(C1CCN(c2cccc(Cl)n2)C1)n1cc(-c2ncnc3[nH]ccc23)cn1 (single isomer, unassigned) [Compound 6, 3-[1-(6-chloropyridin-2-yl)pyrrolidin-3-yl]-3-[4-(7H-pyrrolo[2,3-d]pyrimidin-4-yl)-1H-pyrazol-1-yl]propanenitrile] | < 10 nM | >10 | –
C[C@@H](O)c1nc2cnc3ccsc3c2n1[C@H]1CC[C@H](CC#N)OC1 [Compound 5, ((2R,5S)-5-{2-[(1R)-1-hydroxyethyl]-1H-imidazo[4,5-d]thieno[3,2-b]pyridin-1-yl}tetrahydro-2H-pyran-2-yl)acetonitrile] | < 100 nM | >10 | –
N#CCC(CN1CCN(C(=O)c2ccc(C#N)cc2F)CC1)n1cc(-c2ncnc3[nH]ccc23)cn1 (centres unmarked) [Compound 8, 4-[(4-{3-cyano-2-[4-(7H-pyrrolo[2,3-d]pyrimidin-4-yl)-1H-pyrazol-1-yl]propyl}piperazin-1-yl)carbonyl]-3-fluorobenzonitrile] | < 10 nM | >10 | –
N#CCC(CN1CCN(C(=O)c2ccc(C#N)cc2F)CC1)n1ccc(-c2ncnc3[nH]ccc23)c1 (centres unmarked) [Compound 9, 4-[(4-{3-cyano-2-[3-(7H-pyrrolo[2,3-d]pyrimidin-4-yl)-1H-pyrrol-1-yl]propyl}piperazin-1-yl)carbonyl]-3-fluorobenzonitrile] | < 10 nM | >10 | –
N#CC[C@]1(n2cc(-c3ncnc4[nH]ccc34)cn2)C[C@H](N2CCN(C(=O)c3ccnc(C(F)(F)F)n3)CC2)C1 [Compound 10, [trans-1-[4-(7H-pyrrolo[2,3-d]pyrimidin-4-yl)-1H-pyrazol-1-yl]-3-(4-{[2-(trifluoromethyl)pyrimidin-4-yl]carbonyl}piperazin-1-yl)cyclobutyl]acetonitrile] | < 10 nM | >10 | –
N#CC[C@]1(n2cc(-c3ncnc4[nH]ccc34)cn2)C[C@H](N2CCC(Oc3cc(CN4CC(O)C4)cc(C(F)(F)F)n3)CC2)C1 [Compound 11, {trans-3-(4-{[4-[(3-hydroxyazetidin-1-yl)methyl]-6-(trifluoromethyl)pyridin-2-yl]oxy}piperidin-1-yl)-1-[4-(7H-pyrrolo[2,3-d]pyrimidin-4-yl)-1H-pyrazol-1-yl]cyclobutyl}acetonitrile] | < 10 nM | >10 | –
N#CC[C@]1(n2cc(-c3ncnc4[nH]ccc34)cn2)C[C@H](N2CCC(Oc3cc(CN4CCC[C@H]4CO)cc(C(F)(F)F)n3)CC2)C1 [Compound 12, {trans-3-(4-{[4-{[(2S)-2-(hydroxymethyl)pyrrolidin-1-yl]methyl}-6-(trifluoromethyl)pyridin-2-yl]oxy}piperidin-1-yl)-1-[4-(7H-pyrrolo[2,3-d]pyrimidin-4-yl)-1H-pyrazol-1-yl]cyclobutyl}acetonitrile] | < 10 nM | >10 | –
C[C@H](NC(=O)c1cc(F)c(N2CC(CC#N)(n3cc(-c4ncnc5[nH]ccc45)cn3)C2)cc1F)C(F)(F)F [Compound 16, 4-{3-(cyanomethyl)-3-[4-(7H-pyrrolo[2,3-d]pyrimidin-4-yl)-1H-pyrazol-1-yl]azetidin-1-yl}-2,5-difluoro-N-[(1S)-2,2,2-trifluoro-1-methylethyl]benzamide] | < 10 nM | >10 | –
N#CCC1(n2cc(-c3ncnc4[nH]ccc34)cn2)CN([C@H]2CC[C@@H](Oc3cc(CCO)nc(C(F)(F)F)n3)CC2)C1 [Compound 18, {1-(cis-4-{[6-(2-hydroxyethyl)-2-(trifluoromethyl)pyrimidin-4-yl]oxy}cyclohexyl)-3-[4-(7H-pyrrolo[2,3-d]pyrimidin-4-yl)-1H-pyrazol-1-yl]azetidin-3-yl}acetonitrile] | < 10 nM | >10 | –
N#CCC1(n2cc(-c3ncnc4[nH]ccc34)cn2)CN([C@H]2CC[C@@H](Oc3cc(CN4CC[C@H](O)C4)cc(C(F)(F)F)n3)CC2)C1 [Compound 22, {1-(cis-4-{[4-{[(3S)-3-hydroxypyrrolidin-1-yl]methyl}-6-(trifluoromethyl)pyridin-2-yl]oxy}cyclohexyl)-3-[4-(7H-pyrrolo[2,3-d]pyrimidin-4-yl)-1H-pyrazol-1-yl]azetidin-3-yl}acetonitrile] | < 10 nM | >10 | –
C[C@@H](CO)NCc1cc(OC2CCN([C@H]3C[C@](CC#N)(n4cc(-c5ncnc6[nH]ccc56)cn4)C3)CC2)nc(C(F)(F)F)c1 [Compound 23, {trans-3-(4-{[4-({[(1S)-2-hydroxy-1-methylethyl]amino}methyl)-6-(trifluoromethyl)pyridin-2-yl]oxy}piperidin-1-yl)-1-[4-(7H-pyrrolo[2,3-d]pyrimidin-4-yl)-1H-pyrazol-1-yl]cyclobutyl}acetonitrile] | < 10 nM | >10 | –
C[C@@H](O)CNCc1cc(OC2CCN([C@H]3C[C@](CC#N)(n4cc(-c5ncnc6[nH]ccc56)cn4)C3)CC2)nc(C(F)(F)F)c1 [Compound 24, {trans-3-(4-{[4-({[(2R)-2-hydroxypropyl]amino}methyl)-6-(trifluoromethyl)pyridin-2-yl]oxy}piperidin-1-yl)-1-[4-(7H-pyrrolo[2,3-d]pyrimidin-4-yl)-1H-pyrazol-1-yl]cyclobutyl}acetonitrile] | < 10 nM | >10 | –
C[C@H](O)CNCc1cc(OC2CCN([C@H]3C[C@](CC#N)(n4cc(-c5ncnc6[nH]ccc56)cn4)C3)CC2)nc(C(F)(F)F)c1 [Compound 25, {trans-3-(4-{[4-({[(2S)-2-hydroxypropyl]amino}methyl)-6-(trifluoromethyl)pyridin-2-yl]oxy}piperidin-1-yl)-1-[4-(7H-pyrrolo[2,3-d]pyrimidin-4-yl)-1H-pyrazol-1-yl]cyclobutyl}acetonitrile] | < 10 nM | >10 | –
Cc1n[nH]c(C)c1-c1cnn(C2(CC#N)CN(c3cc(F)c(C(=O)N[C@@H](C)C(F)(F)F)cc3F)C2)c1 [INCB054707] | – | – | cumulative skin lesion disease burden (MRL-lpr mice; [3]): significant dose-dependent effects; daily cutaneous skin lesion score (MRL-lpr mice; [3]): significant dose-dependent effects; incidence of mice with skin lesions (MRL-lpr mice; [3]): significant dose-dependent effects; cumulative skin lesion disease burden (area under the curve) (MRL-lpr mice; topical, 11 to 22 weeks): significantly reduced; cutaneous skin lesion score (MRL-lpr mice; [4]): significantly reduced; incidence of mice with skin lesions (MRL-lpr mice; [4]): significantly reduced; inflammatory markers, RNAseq of skin biopsy (MRL-lpr mice; topical, dose-dependent): downregulation of multiple inflammatory markers; lesional skin regarding erythema, induration, scaling and size (MRL-lpr mice; topical, from 11 weeks to 22 weeks of age): continuously improved

Continued, in another order:

IC50 [1] | JAK2/JAK1 [2] | SMILES | also measured
< 10 nM | >10 | N#CCC1(n2cc(-c3ncnc4[nH]ccc34)cn2)CN(C2CCN(C(=O)Nc3ccc(F)cc3C(F)(F)F)CC2)C1 [Compound 2, 4-{3-(Cyanomethyl)-3-[4-(7H-pyrrolo[2,3-d]pyrimidin-4-yl)-1H-pyrazol-1-yl]azetidin-1-yl}-N-[4-fluoro-2-(trifluoromethyl)phenyl]piperidine-1-carboxamide] | –
< 10 nM | >10 | N#CCC1(n2cc(-c3ncnc4[nH]ccc34)cn2)CN(C2CCN(C(=O)c3ccnc(C(F)(F)F)n3)CC2)C1 [Compound 3, [3-[4-(7H-pyrrolo[2,3-d]pyrimidin-4-yl)-1H-pyrazol-1-yl]-1-(1-{[2-(trifluoromethyl)pyrimidin-4-yl]carbonyl}piperidin-4-yl)azetidin-3-yl]acetonitrile] | –
< 10 nM | >10 | N#CCC(C1CCN(c2nc3cccnc3o2)C1)n1cc(-c2ncnc3[nH]ccc23)cn1 (centres unmarked) [Compound 7, 3-(1-[1,3]oxazolo[5,4-b]pyridin-2-ylpyrrolidin-3-yl)-3-[4-(7H-pyrrolo[2,3-d]pyrimidin-4-yl)-1H-pyrazol-1-yl]propanenitrile] | –
< 10 nM | >10 | N#CC[C@]1(n2cc(-c3ncnc4[nH]ccc34)cn2)C[C@H](N2CCC(Oc3cc(CN4CCC[C@@H]4CO)cc(C(F)(F)F)n3)CC2)C1 [Compound 13, {trans-3-(4-{[4-{[(2R)-2-(hydroxymethyl)pyrrolidin-1-yl]methyl}-6-(trifluoromethyl)pyridin-2-yl]oxy}piperidin-1-yl)-1-[4-(7H-pyrrolo[2,3-d]pyrimidin-4-yl)-1H-pyrazol-1-yl]cyclobutyl}acetonitrile] | –
< 10 nM | >10 | CCNCc1cc(O[C@H]2CC[C@@H](N3CC(CC#N)(n4cc(-c5ncnc6[nH]ccc56)cn4)C3)CC2)nc(C(F)(F)F)c1 [Compound 19, {1-(cis-4-{[4-[(ethylamino)methyl]-6-(trifluoromethyl)pyridin-2-yl]oxy}cyclohexyl)-3-[4-(7H-pyrrolo[2,3-d]pyrimidin-4-yl)-1H-pyrazol-1-yl]azetidin-3-yl}acetonitrile] | –
< 10 nM | >10 | CC(C)(O)c1cc(O[C@H]2CC[C@@H](N3CC(CC#N)(n4cc(-c5ncnc6[nH]ccc56)cn4)C3)CC2)nc(C(F)(F)F)c1 [Compound 20, {1-(cis-4-{[4-(1-hydroxy-1-methylethyl)-6-(trifluoromethyl)pyridin-2-yl]oxy}cyclohexyl)-3-[4-(7H-pyrrolo[2,3-d]pyrimidin-4-yl)-1H-pyrazol-1-yl]azetidin-3-yl}acetonitrile] | –
< 10 nM | >10 | N#CCC1(n2cc(-c3ncnc4[nH]ccc34)cn2)CN([C@H]2CC[C@@H](Oc3cc(CN4CC[C@@H](O)C4)cc(C(F)(F)F)n3)CC2)C1 [Compound 21, {1-(cis-4-{[4-{[(3R)-3-hydroxypyrrolidin-1-yl]methyl}-6-(trifluoromethyl)pyridin-2-yl]oxy}cyclohexyl)-3-[4-(7H-pyrrolo[2,3-d]pyrimidin-4-yl)-1H-pyrazol-1-yl]azetidin-3-yl}acetonitrile] | –
< 10 nM | >10 | N#CC[C@]1(n2cc(-c3ncnc4[nH]ccc34)cn2)C[C@H](N2CCC(Oc3cc(CCO)cc(C(F)(F)F)n3)CC2)C1 [Compound 26, {trans-3-(4-{[4-(2-hydroxyethyl)-6-(trifluoromethyl)pyridin-2-yl]oxy}piperidin-1-yl)-1-[4-(7H-pyrrolo[2,3-d]pyrimidin-4-yl)-1H-pyrazol-1-yl]cyclobutyl}acetonitrile] | –
